Data set [1] concerns the target Sodium-dependent serotonin transporter (Homo sapiens, UniProt P31645). As to the kind of experiment: Inhibition of [3H]serotonin reuptake at human SERT expressed in CHO cells after 20 mins by scintillation counting. It is filed as cell-based.
The target of data set [2] is Sodium-dependent noradrenaline transporter (Homo sapiens, UniProt P23975). As to the kind of experiment: Inhibition of [3H]norepinephrine reuptake at human NET expressed in CHO cells after 45 mins by scintillation counting. It counts as cell-based.
Chain of Sodium-dependent noradrenaline transporter (P23975 whole entry): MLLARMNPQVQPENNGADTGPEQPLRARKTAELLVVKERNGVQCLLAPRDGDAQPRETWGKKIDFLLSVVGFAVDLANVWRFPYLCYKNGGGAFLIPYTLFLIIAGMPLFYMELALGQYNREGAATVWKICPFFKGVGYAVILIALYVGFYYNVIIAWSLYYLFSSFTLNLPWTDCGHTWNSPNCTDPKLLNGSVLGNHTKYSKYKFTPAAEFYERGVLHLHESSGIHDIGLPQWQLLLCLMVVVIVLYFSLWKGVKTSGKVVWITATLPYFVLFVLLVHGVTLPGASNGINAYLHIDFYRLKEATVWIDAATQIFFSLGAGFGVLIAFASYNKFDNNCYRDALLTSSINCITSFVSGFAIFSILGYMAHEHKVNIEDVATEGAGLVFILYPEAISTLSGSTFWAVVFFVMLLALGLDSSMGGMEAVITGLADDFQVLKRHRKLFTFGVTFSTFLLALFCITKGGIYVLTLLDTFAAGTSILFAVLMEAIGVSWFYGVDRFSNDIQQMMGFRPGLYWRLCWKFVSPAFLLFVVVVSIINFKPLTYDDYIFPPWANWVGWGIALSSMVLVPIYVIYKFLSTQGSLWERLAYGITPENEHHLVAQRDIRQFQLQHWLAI
In data set [3] the target is Sodium-dependent dopamine transporter (Homo sapiens, UniProt Q01959). As to the kind of experiment: Inhibition of [3H]dopamine reuptake at human DAT expressed in CHO cells after 60 mins by scintillation counting. It counts as cell-based.
Chain of Sodium-dependent dopamine transporter (Q01959 whole entry): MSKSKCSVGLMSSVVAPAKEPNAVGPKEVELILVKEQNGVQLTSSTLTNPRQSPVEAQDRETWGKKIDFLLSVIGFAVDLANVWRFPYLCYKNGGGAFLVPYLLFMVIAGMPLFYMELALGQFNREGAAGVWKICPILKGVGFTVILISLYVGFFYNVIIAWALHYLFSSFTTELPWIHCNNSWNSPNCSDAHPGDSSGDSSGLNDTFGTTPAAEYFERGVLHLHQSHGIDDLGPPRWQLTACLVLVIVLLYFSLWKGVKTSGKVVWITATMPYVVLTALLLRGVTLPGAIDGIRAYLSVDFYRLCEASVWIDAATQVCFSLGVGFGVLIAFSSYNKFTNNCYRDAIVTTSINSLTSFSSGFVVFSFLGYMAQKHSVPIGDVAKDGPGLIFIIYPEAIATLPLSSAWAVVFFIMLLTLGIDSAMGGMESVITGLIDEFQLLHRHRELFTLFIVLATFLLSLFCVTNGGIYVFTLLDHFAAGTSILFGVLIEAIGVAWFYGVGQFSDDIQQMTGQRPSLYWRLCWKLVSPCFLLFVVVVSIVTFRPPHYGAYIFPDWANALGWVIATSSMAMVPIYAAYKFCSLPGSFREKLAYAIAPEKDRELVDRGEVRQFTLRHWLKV
In the next data set the target is Cytochrome P450 2D6 (Homo sapiens, UniProt P10635). As to the kind of experiment: Inhibition of CYP2D6 (unknown origin). It is filed as ADME.
Chain of Cytochrome P450 2D6 (P10635 whole entry): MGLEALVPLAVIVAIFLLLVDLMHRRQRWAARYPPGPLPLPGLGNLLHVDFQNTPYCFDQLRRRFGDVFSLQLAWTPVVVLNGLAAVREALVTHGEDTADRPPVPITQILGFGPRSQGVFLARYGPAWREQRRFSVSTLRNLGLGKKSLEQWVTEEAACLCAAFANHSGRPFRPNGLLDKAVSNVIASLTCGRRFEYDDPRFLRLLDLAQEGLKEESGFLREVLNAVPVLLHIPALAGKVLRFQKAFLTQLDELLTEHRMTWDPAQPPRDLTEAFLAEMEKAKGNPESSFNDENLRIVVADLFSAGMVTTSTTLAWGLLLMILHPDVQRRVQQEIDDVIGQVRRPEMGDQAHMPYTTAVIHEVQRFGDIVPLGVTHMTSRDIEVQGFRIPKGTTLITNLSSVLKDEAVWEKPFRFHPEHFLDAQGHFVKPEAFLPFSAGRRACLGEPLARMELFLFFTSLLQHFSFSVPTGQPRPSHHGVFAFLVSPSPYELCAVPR
Data set [4] addresses Voltage-gated inwardly rectifying potassium channel KCNH2 (Homo sapiens, UniProt Q12809). As to the kind of experiment: Inhibition of human ERG.
The test system of data set [5] is Mus musculus. As to the kind of experiment: Antidepressant activity in po dosed ICR mouse assessed as immobility time measured 60 mins post dose by tail-suspension test. It is filed as functional, organism-based.
For data set [6], the system named is Mus musculus. As to the kind of experiment: Antidepressant activity in ICR mouse assessed as immobility time at 3 mg/kg, po measured 60 mins post dose by tail-suspension test. It counts as functional, organism-based. More on the design: dose 3 mg/kg.
Data set [7] relates to Mus musculus. As to the kind of experiment: Increase in extracellular 5-HT level in ICR mouse prefrontal cortex at 3 mg/kg, po measured at 120 mins post dose relative to basal level by microdialysis. It counts as functional.
In data set [8] the test system is Mus musculus. As to the kind of experiment: Increase in extracellular norepinephrine level in ICR mouse prefrontal cortex at 3 mg/kg, po measured at 120 mins post dose relative to basal level by microdialysis. It counts as functional.
The subject of data set [9] is Mus musculus. As to the kind of experiment: Increase in extracellular dopamine level in ICR mouse prefrontal cortex at 3 mg/kg, po measured at 120 mins post dose relative to basal level by microdialysis. It is filed as functional.

Molecules are shown by their SMILES. Active and inactive are the calls of the source. The rule behind the calls is not given here. Bounds are passed on as bounds.

Chain of Sodium-dependent serotonin transporter (P31645 whole entry): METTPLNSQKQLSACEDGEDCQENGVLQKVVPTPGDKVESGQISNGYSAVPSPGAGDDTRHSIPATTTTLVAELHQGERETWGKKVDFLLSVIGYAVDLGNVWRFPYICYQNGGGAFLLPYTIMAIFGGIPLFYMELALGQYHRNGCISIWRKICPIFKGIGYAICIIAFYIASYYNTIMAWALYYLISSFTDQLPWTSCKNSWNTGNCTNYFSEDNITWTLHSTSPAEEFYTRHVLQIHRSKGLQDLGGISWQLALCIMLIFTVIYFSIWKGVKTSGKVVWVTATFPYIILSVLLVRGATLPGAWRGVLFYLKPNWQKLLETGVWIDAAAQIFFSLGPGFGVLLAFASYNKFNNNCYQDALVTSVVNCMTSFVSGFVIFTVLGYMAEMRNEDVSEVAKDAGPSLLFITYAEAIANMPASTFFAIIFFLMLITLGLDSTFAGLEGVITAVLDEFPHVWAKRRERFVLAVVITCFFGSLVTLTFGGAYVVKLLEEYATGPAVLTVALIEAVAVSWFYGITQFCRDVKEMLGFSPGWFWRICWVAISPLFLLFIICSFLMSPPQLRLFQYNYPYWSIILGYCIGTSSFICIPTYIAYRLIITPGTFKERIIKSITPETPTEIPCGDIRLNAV
Chain of Voltage-gated inwardly rectifying potassium channel KCNH2 (Q12809 whole entry): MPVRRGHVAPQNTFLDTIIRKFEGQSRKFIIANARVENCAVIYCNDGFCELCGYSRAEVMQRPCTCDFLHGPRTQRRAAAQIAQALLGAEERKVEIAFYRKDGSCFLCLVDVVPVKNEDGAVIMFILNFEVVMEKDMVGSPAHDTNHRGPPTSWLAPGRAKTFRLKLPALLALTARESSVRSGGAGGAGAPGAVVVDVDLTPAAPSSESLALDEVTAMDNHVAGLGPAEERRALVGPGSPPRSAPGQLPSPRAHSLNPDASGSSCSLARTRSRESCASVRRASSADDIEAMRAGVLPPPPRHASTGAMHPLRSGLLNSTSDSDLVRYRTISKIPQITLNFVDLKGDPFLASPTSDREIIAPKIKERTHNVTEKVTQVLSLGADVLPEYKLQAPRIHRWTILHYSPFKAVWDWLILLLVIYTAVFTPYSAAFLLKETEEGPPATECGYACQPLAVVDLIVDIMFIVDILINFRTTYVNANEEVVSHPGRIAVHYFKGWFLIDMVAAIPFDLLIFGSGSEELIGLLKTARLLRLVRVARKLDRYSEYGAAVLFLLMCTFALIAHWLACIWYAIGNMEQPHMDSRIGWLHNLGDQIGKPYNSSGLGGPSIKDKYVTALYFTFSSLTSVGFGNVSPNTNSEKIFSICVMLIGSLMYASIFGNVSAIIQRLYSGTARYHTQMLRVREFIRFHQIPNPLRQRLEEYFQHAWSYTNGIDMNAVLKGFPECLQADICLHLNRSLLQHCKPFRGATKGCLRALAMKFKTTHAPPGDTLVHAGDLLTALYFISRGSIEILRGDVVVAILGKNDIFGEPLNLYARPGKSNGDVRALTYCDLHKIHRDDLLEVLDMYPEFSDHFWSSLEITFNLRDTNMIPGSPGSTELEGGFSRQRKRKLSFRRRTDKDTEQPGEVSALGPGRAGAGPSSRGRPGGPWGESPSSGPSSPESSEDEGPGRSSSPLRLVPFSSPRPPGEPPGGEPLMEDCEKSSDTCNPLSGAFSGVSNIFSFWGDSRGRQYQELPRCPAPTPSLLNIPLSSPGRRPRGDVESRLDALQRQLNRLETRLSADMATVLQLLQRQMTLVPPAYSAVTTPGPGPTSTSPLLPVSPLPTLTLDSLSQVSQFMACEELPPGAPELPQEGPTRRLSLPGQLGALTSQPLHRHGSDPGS

Turning to `CCC1NCCCN(c2ccc(Cl)c(Cl)c2)C1=O.Cl` (racemic), the IC50 in data set [1] came to 570 nM; in data set [2], 7.7 nM; in data set [3], 190 nM. For the same compound, the “inhibition (INH)” value (against Cytochrome P450 2D6; in data set [4]) was “Not Active” throughout.
In the case of `O=C1CNCC2(CC2)CN1c1ccc(Cl)c(Cl)c1`, the IC50 in data set [1] stood at 2200 nM; in [2] it was 82 nM; in [3], 120 nM.
As to `C[C@@H]1NCCCN(c2ccc3ccccc3c2)C1=O.Cl`, the Activity result was “Dose-dependent effect” with Mus musculus [5], 210% in the data set with Mus musculus [7], 750% with Mus musculus [8] and 640% in the data set on Mus musculus [9]. The result in the data set with Mus musculus [6] was Active. Moreover, the IC50 amounted to 83 nM in data set [1], 3.8 nM in [2] and 160 nM in [3]. Also, the “inhibition (INH)” value (on Cytochrome P450 2D6; in [4]) was “Not Active” in each case.
Consider `Cl.O=C1CNCCCN1c1ccc(Cl)c(Cl)c1`, for which the IC50 in data set [1] worked out at 50 nM; in data set [2] it was 13 nM; in data set [3], 420 nM. The “inhibition (INH)” value (on Cytochrome P450 2D6; in data set [4]) was “Not Active” throughout.
As to `CN1CCCN(c2ccc(Cl)c(Cl)c2)C(=O)C1.Cl`, the IC50 in data set [1] was 5500 nM; in [2], 3200 nM; in data set [3] it was greater than 10000 nM. Also, the “inhibition (INH)” value (against Cytochrome P450 2D6; in [4]) was “Not Active” each time.
Regarding `CC1CCNCC(=O)N1c1ccc(Cl)c(Cl)c1` (racemic), the IC50 in data set [1] was found to be 1900 nM; in data set [2], 660 nM; in data set [3], 4500 nM.
Regarding `CC1CCN(c2ccc(Cl)c(Cl)c2)C(=O)CN1.Cl` (racemic), the IC50 in data set [1] is 4300 nM; in data set [2] it was 1700 nM; in data set [3] it was greater than 10000 nM. The “inhibition (INH)” value (against Cytochrome P450 2D6; in data set [4]) was “Not Active” in each case.
`CCC1NCCCN(c2ccc3ccccc3c2)C1=O.Cl` (racemic): the IC50 in data set [1] came to 88 nM; in [2] it was 9.2 nM; in data set [3] it was 130 nM. The “inhibition (INH)” value (on Cytochrome P450 2D6; in data set [4]) was “Not Active” throughout.
In the case of `CC1CNCC(=O)N(c2ccc(Cl)c(Cl)c2)C1` (racemic), the IC50 amounted to 2200 nM in [1], 260 nM in data set [2] and 4000 nM in data set [3].
`CC1NCCCN(c2ccc3ccccc3c2)C1=O.Cl` (racemic): the IC50 in data set [1] is 200 nM; in data set [2] it was 14 nM; in [3] it was 340 nM. The “inhibition (INH)” value (against Cytochrome P450 2D6; in data set [4]) was “Not Active” in each case.
`C[C@H]1NCCCN(c2ccc3ccccc3c2)C1=O`: the 50% inhibitory concentration (IC50) is 260 nM in data set [1], 570 nM in [2] and greater than 10000 nM in [3].
With `CC1NCCCN(c2ccc(Cl)c(Cl)c2)C1=O.Cl` (racemic), the IC50 came to 530 nM in data set [1], 8 nM in [2] and 470 nM in data set [3]. Further, the “inhibition (INH)” value (at Cytochrome P450 2D6; in [4]) was “Not Active” each time.
As to `O=C1CNCC(F)(F)CN1c1ccc(Cl)c(Cl)c1`, the results for the half-inhibitory concentration (IC50) in [1], in data set [2] and in data set [3] were 1300 nM, 2000 nM and 8100 nM, respectively.

The values are drawn from ChEMBL document CHEMBL3352612, “Design, synthesis, and biological activities of 1-aryl-1,4-diazepan-2-one derivatives as novel triple reuptake inhibitors” (Bioorg Med Chem Lett, 2014).
